Test results: US10023864B2, “Methods of treating a metabolic syndrome by modulating heat shock protein (HSP) 90-beta” (Berg LLC, priority 2014, dated 2018)
“Also recorded” adds a separate entry of the source. d = 2'-deoxy (DNA); m = 2'-O-methyl

Experiments:
human Hsp90AB1 protein = assay: Knockdown of Hsp90AB1 protein in HSMM by Western blotting; assay type: cell-based; settings: Western blot, normalized to actin, vs NC1
Procedure: ASO1-ASO6 were tested for their ability to knock down human Hsp90AB1 levels in HSMM myotubes. The effectiveness of oligonucleotides ASO1 (A1), ASO2 (A2) ASO3 (A3) ASO4 (A4) ASO5 (A5) and ASO6 (A6) in knocking down the expression of HSP90AB1 protein is shown by Western blotting in FIGS. 19A and 19B. The oligonucleotide NC1 was used as a negative control. HSP90Ab1 protein levels were normalized to the levels of actin.
The ASO oligonucleotides ASO5, ASO13 and ASO18 were tested for their ability to reduce expression of human Hsp90AB1 protein in human skeletal muscle myotubes (HSMM) and C2C12 mouse myoblasts by Western blotting. ASO5 was derived from the mouse HSP90ab1 gene, while ASO13 and ASO18 were directed to the human HSP90ab1 gene. The oligonucleotide NC1 was used as a negative control. HSP90AB1protein levels were normalized to the levels of actin.

DIO mice [1] = assay: Intraperitoneal glucose tolerance test (IPGTT) in DIO mice; assay type: in vivo, mouse; settings: four weeks treatment, vs NC ASO
Procedure: Glucose tolerance tests (GTT) are performed after 6 h of fasting. Initial fasting blood glucose levels are determined, followed by intraperitoneal (ip) injection of 20% dextrose solution at a dose of 2.0 g/kg body weight (2 g/kg body weight). Blood glucose levels are measured from the tail vein at 15, 30, 60, 90, 120, 150, and 180 minutes after the glucose injection using a commercially available glucose monitor, e.g., an Accu-chek® Advantage glucometer (Roche Diagnostics®, Indianapolis, Ind.). The area under the curve (AUC) during the GTT is calculated using a commercially available software program, e.g., GraphPad Prism software. GTT experiments for different groups are run in parallel. At each time point of the tail vein glucose measurements, ˜40 μL of tail vein blood is collected and plasma is prepared for subsequent insulin level assays using ELISA/RIA for time points at 0, 15, and 30 min after glucose injections.
HSP90AB1 antisense oligonucleotides (ASO) specific to HSP90AB1 were administered to DIO mice. […]
The mice were divided into four groups: (1) lean (non-diabetic control); (2) diabetic receiving control ASO (NC-ASO); (3) diabetic receiving ASO5; and (4) diabetic receiving ASO6. […] Skeletal muscles were subjected to quantitative PCR.
At the end of the treatment period glucose tolerance was measured. […]

muscle of DIO mice = assay: Lipidomic analysis of muscle of DIO mice; assay type: in vivo, mouse
Description: As noted in the above examples, Hsp90ab1 was identified as a critical node in Bayesian metabolic disease network derived by the interrogation of the biology underlying diabetes in a data driven manner. This was achieved by using a proprietary platform integrating pan-omic data, mitochondrial-centric metabolic fingerprint and phenotypic assays capturing metabolic dysregulation reminiscent of obesity/diabetes sequale. Hsp90ab1 is an ATPase targeting multiple clients including vital components of insulin signaling and mitochondrial membrane proteins. However the role of Hsp90ab1 in metabolism remains unknown. […] This was accompanied by decreased muscle PDH E1a phosphorylation, reflecting an increased insulin sensitivity and carbohydrate substrate metabolism. We also observed significant alteration in the lipidomic profile in these DIO mice treated with ASO6. For example ASO6-mediated knockdown of Hsp90ab1 in DIO mice increased 18:2 enriched species of cardiolipin in muscle. […] Taken together, our data provides novel evidence that Hsp90ab1 isoform is a key regulator of skeletal muscle cell metabolism and systemic metabolism, and represents a target for treatment of diabetes.

human Hsp90AB1 mRNA = assay: Knockdown of Hsp90AB1 mRNA in HSMM myotubes; assay type: cell-based; settings: normalized to cyclophilin, vs NC1ASO
Description: The level of human Hsp90AB1 at the mRNA level was similarly observed to be reduced in HSMM myotubes treated with the exemplary mouse antisense oligonucleotide ASO6 (FIG. 20). ASO6 (and ASOs 1-5 and 7-9) is derived from the mouse HSP90AB1 gene. The oligonucleotide NC1ASO was again used as a negative control. The level of HSP90 mRNA was normalized to a control (cyclophilin) mRNA. The human and the mouse Hsp90aB1 gene share 96% homology.

[2] = test system: skeletal muscles of DIO mice; assay: Skeletal muscle gene expression and PDH-E1α phosphorylation in DIO mice; assay type: in vivo, mouse
Description: PDK4 is known to phosphorylate pyruvate dehydrogenase (PDH)-E1α subunit, thereby inhibiting PDH and downregulating mitochondrial glucose oxidation. […] This decrease in phosphorylation is indicative of an increase in active PDH-E1α and a resultant increase in mitochondrial glucose oxidation. Thus, ASO mediated Hsp90ab1 knock-down is effective for enhancing substrate metabolism through suppression of PDK4 expression.
These genes are PFKM (phosphofructokinase, muscle), ALDOA (aldolase A), GYS1 (glycogen synthase 1) ACCA (Acetyl-CoA carboxylase), HSL (Hormone sensitive lipase), SCD1 (Stearoyl-CoA desaturase), ACADL (Acyl-CoA Dehydrogenase), and CPT1b (Carnitine palmitoyltransferase I). Gene expression was examined in the skeletal muscles of the mice.

Hsp90ab1 mRNA = Hsp90ab1 mRNA in gastrocnemius muscles of DIO mice (quantitative PCR); assay type: in vivo, mouse; settings: ASO intra-peritoneally twice per week
Procedure: (§1) The mice were divided into four groups: (1) lean (non-diabetic control); (2) diabetic receiving control ASO (NC-ASO); (3) diabetic receiving ASO5; and (4) diabetic receiving ASO6. In various experiments mice were dosed intra-peritoneally with twice per week injection of ASO at […] body weight for 4 or 8 weeks. Skeletal muscles were subjected to quantitative PCR.

DIO mice [3] = assay: Fed / plasma glucose level in DIO mice; assay type: in vivo, mouse
Procedure: as §1
Additional experiments were performed to determine the effect of the reduction of Hsp90ab1 protein level on the level of glucose in plasma. […] Thus, treatment with an Hsp90ab1 selective ASO is effective for improving glucose utilization in DIO mice.

DIO mice [4] = assay: Insulin level in DIO mice; assay type: in vivo, mouse
Procedure: as §1
Further, the effect of the reduction of Hsp90ab1 protein level on plasma insulin levels was examined.

In the case of “mU*mC*mC*mU*mC*mC*T*C*T*T*T*C*T*C*A*C*C*T*mU*mU*mC*mU*mC*mU (antisense UCCUCCTCTTTCTCACCTUUCUCU; sugars from the 5' end m6 d12 m6, all phosphorothioate, methylation of C not given here) [ASO6, modified antisense oligonucleotide derived from the mouse HSP90AB1 gene]”, the “level of HSP90ab1 protein” value (human Hsp90AB1 protein) is reported as “effective; also recorded: most effective”, the “glucose tolerance (IPGTT)” value (DIO mice [1]) is reported as “significant improvement; also recorded: significantly improved” and the “18:0 and 18:0-OH acylcarnitines in muscle” value (muscle of DIO mice) is reported as “selectively decreased”. The “18:2 enriched species of cardiolipin in muscle” value (muscle of DIO mice) was “increased”, the “steric, oleic, and linoleic free fatty acids (FFA) in muscle” value (muscle of DIO mice) was “decreased” and the “level of human Hsp90AB1 mRNA” value (human Hsp90AB1 mRNA) was “knockdown; also recorded: reduced”. The “PDK4 expression (mRNA) in skeletal muscle” value ([2]; DIO mice (fed HFD), 4 weeks, vs NC) was “significant decrease”, the “phosphorylation of PDH-E1α (S232, S293, S300) in skeletal muscle” value ([2]; DIO mice, Western blot) was “decreased” and the “skeletal muscle mRNA level of Adipose triglyceride lipase (ATGL)” value ([2]; DIO mice, four weeks) was “sharp increase”. For the same substance, the “expression of key genes that regulate glycolysis and lipid oxidation (PFKM, ALDOA, GYS1, ACCA, HSL, SCD1, ACADL, CPT1b)” value ([2]; DIO mice, four weeks, skeletal muscles) was “influences the expression”, the “Hsp90ab1 mRNA level in the gastrocnemius muscles” value (Hsp90ab1 mRNA) was “effective; also recorded: reduce” and the fed glucose level (DIO mice [3]; DIO mice, eight weeks treatment) was “significant improvement”. For the same substance, the fed glucose levels (DIO mice [3]; HFD fed C57B/6 mice, 4 weeks treatment) was “suppressed” and the fed insulin levels (DIO mice [4]) was “significant reduction”.
